Assay results from patent US3957978A, “Phosphonium anti-parasitics” (American Cyanamid Company, priority 1975, dated 1976).
Where two headings read alike, the source gives them in different places.

Test system: Nematospiroides dubius
Test: Evaluation (Efficacy) Test in Mice, Nematospiroides dubius
Assay type: in vivo
Conditions: for inhibition in vivo at 0.1 %: 0.1 % diet; for inhibition in vivo at 0.05 %: 0.05 % diet; for inhibition in vivo at 0.003 %: 0.003 % diet
Text: The primary target parasite of this test is Nematospiroides dubius (Family: Heligmosomidae), which is phylogenetically related to certain economically important parasites of domestic and farm animals. Mice are orally inoculated with 20 to 30 infective N. dubius larvae. Mixed infections are obtained by subsequent inoculation with Aspicularis tetraptera and Hymenolepis nana. Eighteen days after inoculation the mice are divided into groups of four. Each group receives one compound at a specified dose rate, either as a single gavage dose or fed continually in the feed. Four groups of five mice each are utilized as infected, untreated controls. […] Those mice receiving single oral doses (SOD) or a single subcutaneous injection (Sc) of 5 mg./kg. to 100 mg./kg. of animal body weight of the compound under test are treated 22 days after inoculation. Eight days after start of treatment (drug diet) and 4 days post treatment (single dose SOD or Sc), the mice are necropsied, the worms recovered and counted. Percent efficacy for Nematospiroides is calculated using the formula: % Efficacy Equals [formula]
The diet used in the test procedures is a standard commercial mouse chow containing meat and bone meal, dried skimmed milk, wheat germ meal, fish meal, animal liver meal, dried beet pulp, ground extended corn, oat middlings, soybean meal, dehydrated alfalfa meal, cane molasses. animal fat preserved with BHA, vitamin B-12 supplement, calcium panthotenate, choline chloride, folic acid, riboflavin supplement, brewer's dried yeast, thiamine, niacin, vitamin A supplement, D activated plant sterol, vitamin E supplement, dicalcium phosphate, iodized salt, ferric ammonium citrate, iron oxide, manganous oxide, cobalt carbonate, copper oxide and zinc oxide; and the desired level of test compound.
When the drug is administered as a single oral dose, the drug is weighed and suspended in 0.2% agar, thoroughly mixed and orally introduced at the required volume.

[1] = Heligmosomoides polygyrus, po, single oral dose, 25 mg/kg, read-out: % Efficacy N.d.
[2] = drug diet, 0.006 % diet, 7 days
[3] = drug diet, 0.0125 % diet, 7 days
[4] = Heligmosomoides polygyrus, po, single oral dose, 5 mg/kg, read-out: % Efficacy N.d.
[5] = Heligmosomoides polygyrus, po, single oral dose, 10 mg/kg, read-out: % Efficacy N.d.
[6] = Heligmosomoides polygyrus, sc, subcutaneous, 10 mg/kg, read-out: % Efficacy N.d.
[7] = Heligmosomoides polygyrus, sc, subcutaneous, 25 mg/kg, read-out: % Efficacy N.d.
[8] = Heligmosomoides polygyrus, po, 168 h, drug diet, 7 days, read-out: % Efficacy N.d.
[9] = Heligmosomoides polygyrus, po, single oral dose, read-out: % Efficacy N.d.
[10] = Heligmosomoides polygyrus, po, 168 h, drug diet, 0.025 % diet, 7 days, read-out: % Efficacy N.d.
[11] = single oral dose, 10 mg/kg, dosage weight is that of the cation
[12] = single oral dose, 25 mg/kg, dosage weight is that of the cation
[13] = Heligmosomoides polygyrus, po, 168 h, drug diet, 0.006 % diet, 7 days, read-out: % Efficacy N.d.
[14] = Heligmosomoides polygyrus, po, 168 h, drug diet, 0.0125 % diet, 7 days, read-out: % Efficacy N.d.

SMILES | inhibition in vivo at 25 mg/kg [1] | % Efficacy N.d. [2] | % Efficacy N.d. [3] | inhibition in vivo at 50 mg/kg [9] | inhibition in vivo at 0.025 % [10] | inhibition in vivo at 0.006 % [13] | inhibition in vivo at 0.0125 % [14] | other results
C(=P(c1ccccc1)(c1ccccc1)c1ccccc1)[P+](c1ccccc1)(c1ccccc1)c1ccccc1.[Cl-] [Type II, R1 Phenyl, X Cl, Triphenyl[(triphenylphosphoranylidene)methyl]-phosphonium Chloride] | 96% | 91% | 100% |  |  |  |  | % Efficacy N.d. (single oral dose, 10 mg/kg): 51%
C(=P(c1ccccc1)(c1ccccc1)c1ccccc1)[P+](c1ccccc1)(c1ccccc1)c1ccccc1.[Br-] [Type II, R1 Phenyl, X Br, Triphenyl[(triphenylphosphoranylidene)methyl]-phosphonium Bromide] |  | 94% | 100% |  |  |  |  | inhibition in vivo at 5 mg/kg [4]: 32.5%; inhibition in vivo at 10 mg/kg [5]: 65%; inhibition in vivo at 10 mg/kg [6]: 74%; inhibition in vivo at 25 mg/kg [7]: 94%; % Efficacy N.d. (single oral dose, 25 mg/kg): 89%
Cc1ccc([P+](C[P+](c2ccccc2)(c2ccccc2)c2ccc(C)cc2)(c2ccccc2)c2ccccc2)cc1 [Type I, R1 p-tolyl, X Br, Methylenebis(diphenyl-p-tolyl) Phosphonium Dibromide] |  |  |  | 57% |  |  |  | inhibition in vivo at 0.1 % [8]: 57%; inhibition in vivo at 100 mg/kg [9]: 75%
c1ccc([P+](C[P+](c2ccccc2)(c2ccccc2)c2ccccc2)(c2ccccc2)c2ccccc2)cc1 [Type I, R1 Phenyl, X Br, Methylenebis Triphenylphosphonium Dibromide] |  | 78% |  |  | 100% |  |  | inhibition in vivo at 0.125 % (Heligmosomoides polygyrus, po, 168 h, drug diet, 0.125 % diet, 7 days, read-out: % Efficacy N.d.): 94%; inhibition in vivo at 10 mg/kg [6]: 42%; inhibition in vivo at 25 mg/kg [7]: 84%; % Efficacy N.d. (single oral dose, 5 mg/kg): 49%; % Efficacy N.d. (single oral dose, 10 mg/kg): 51.5%; % Efficacy N.d. (single oral dose, 25 mg/kg): 95.5%
Cc1ccc(P(=C[P+](c2ccccc2)(c2ccccc2)c2ccccc2)(c2ccccc2)c2ccccc2)cc1 |  |  |  | 31% |  |  |  | inhibition in vivo at 0.05 % [8]: 59%; inhibition in vivo at 0.1 % [8]: 67%; inhibition in vivo at 100 mg/kg [9]: 67%
c1ccc(C[P+](C[P+](Cc2ccccc2)(c2ccccc2)c2ccccc2)(c2ccccc2)c2ccccc2)cc1 [Type I, R1 Benzyl, X Br, Methylenebis(benzyldiphenyl)phosphonium Dibromide] |  |  |  | 79% |  |  |  | inhibition in vivo at 0.05 % [8]: 73%; inhibition in vivo at 100 mg/kg [9]: 80%
C(=P(c1ccccc1)(c1ccccc1)c1ccccc1)[P+](c1ccccc1)(c1ccccc1)c1ccccc1 [Type II, R1 Phenyl, X Br^-.CuBr2] |  |  | 51% |  | 100% |  |  | inhibition in vivo at 10 mg/kg (Heligmosomoides polygyrus, po, single oral dose, 10 mg/kg, dosage weight is that of the cation, read-out: % Efficacy N.d.): 43%; inhibition in vivo at 25 mg/kg (Heligmosomoides polygyrus, po, single oral dose, 25 mg/kg, dosage weight is that of the cation, read-out: % Efficacy N.d.): 76%
C(=P(c1ccccc1)(c1ccccc1)c1ccccc1)[P+](c1ccccc1)(c1ccccc1)c1ccccc1 [Type II, R1 Phenyl, X not printed] |  | 85% | 100% |  |  |  |  | inhibition in vivo at 5 mg/kg (Heligmosomoides polygyrus, po, single oral dose, 5 mg/kg, dosage weight is that of the cation, read-out: % Efficacy N.d.): 49%; % Efficacy N.d. [11]: 63%; % Efficacy N.d. [12]: 94%
C(=P(c1ccccc1)(c1ccccc1)c1ccccc1)[P+](c1ccccc1)(c1ccccc1)c1ccccc1.[I-] [Type II, R1 Phenyl, X I, Triphenyl[(triphenylphosphoranylidene)methyl]-phosphonium Iodide] |  | 89% | 100% |  |  |  |  | % Efficacy N.d. (single oral dose, 5 mg/kg): 26%; % Efficacy N.d. (single oral dose, 10 mg/kg): 67%; % Efficacy N.d. (single oral dose, 25 mg/kg): 91%
CCC(=P(c1ccccc1)(c1ccccc1)c1ccccc1)[P+](c1ccccc1)(c1ccccc1)c1ccccc1 [Type II, R2 Ethyl, X I] | 75% |  |  | 85% | 100% | 46% | 74% | inhibition in vivo at 10 mg/kg [5]: 68%
CCCC(=P(c1ccccc1)(c1ccccc1)c1ccccc1)[P+](c1ccccc1)(c1ccccc1)c1ccccc1 [Type II, R2 n-Propyl, X I] | 63% |  |  | 100% | 100% | 86% | 88% | inhibition in vivo at 0.003 % [8]: 50%; inhibition in vivo at 10 mg/kg [5]: 42%
c1ccc(CC(=P(c2ccccc2)(c2ccccc2)c2ccccc2)[P+](c2ccccc2)(c2ccccc2)c2ccccc2)cc1 [Type II, R2 Benzyl, X Br] | 72% |  |  | 100% | 96% |  | 89% | inhibition in vivo at 0.05 % [8]: 100%
CC(=P(c1ccccc1)(c1ccccc1)c1ccccc1)[P+](c1ccccc1)(c1ccccc1)c1ccccc1 [Type II, R2 Methyl, X I, Triphenyl[1-(triphenylphosphoranylidene)ethyl]-phosphonium Iodide] | 98% |  |  |  |  | 98% | 99% | inhibition in vivo at 0.003 % [8]: 57%; inhibition in vivo at 5 mg/kg [4]: 65%; inhibition in vivo at 10 mg/kg [5]: 96%; inhibition in vivo at 5 mg/kg (Heligmosomoides polygyrus, sc, subcutaneous, 5 mg/kg, read-out: % Efficacy N.d.): 80%; inhibition in vivo at 10 mg/kg [6]: 95%; inhibition in vivo at 25 mg/kg [7]: 100%
c1ccc([P+](C[P+](c2ccccc2)(c2ccccc2)c2ccccc2)(c2ccccc2)c2ccccc2)cc1 [Type I, R1 Phenyl, X Cl, methylenebis triphenylphosphonium dichloride] | 96.5% |  |  |  |  | 85% | 100% | % Efficacy N.d. (single oral dose, 5 mg/kg): 85%; % Efficacy N.d. (single oral dose, 10 mg/kg): 84%
CSCC(=P(c1ccccc1)(c1ccccc1)c1ccccc1)[P+](c1ccccc1)(c1ccccc1)c1ccccc1 [Type II, R2 CH3 --S--CH2 --, X Cl, [2-(methylthio)-1-(triphenylphosphoranylidene)-ethyl]triphenylphosphonium Chloride] |  |  |  |  | 56% |  |  | inhibition in vivo at 0.05 % [8]: 65%; inhibition in vivo at 0.1 % [8]: 97%
IC(=P(c1ccccc1)(c1ccccc1)c1ccccc1)[P+](c1ccccc1)(c1ccccc1)c1ccccc1 [Type II, R2 I, X I] |  |  |  | 70% | 100% | 54% | 98% | 
C(=P(c1ccccc1)(c1ccccc1)c1ccccc1)[P+](c1ccccc1)(c1ccccc1)c1ccccc1 [Type II, R1 Phenyl, X 2,6-Diiodo-4-nitrophenol] [Triphenyl[(triphenylphosphoranylidene)methyl]-phosphonium-2,6-diiodo-4-nitrophenolate] |  | 41% | 86.5% |  |  |  |  | % Efficacy N.d. (drug diet, 0.025 % diet, 7 days): 99.5%; % Efficacy N.d. (single oral dose, 5 mg/kg, dosage weight is that of the cation): 36.7%; % Efficacy N.d. [11]: 44.7%; % Efficacy N.d. [12]: 88.5%
Cc1ccc([P+](C[P+](c2ccccc2)(c2ccccc2)c2ccccc2)(c2ccccc2)c2ccccc2)cc1 [P,P,P,P',P'-Pentaphenyl P'-p-tolyl-P,P' Methylenediphosphonium Dibromide] | 57% |  |  | 64% | 60% |  |  | inhibition in vivo at 0.05 % [8]: 80%; inhibition in vivo at 100 mg/kg [9]: 77%
C=CCC(=P(c1ccccc1)(c1ccccc1)c1ccccc1)[P+](c1ccccc1)(c1ccccc1)c1ccccc1 [Type II, R2 Allyl, X Br] | 86% |  |  | 100% | 100% |  | 33% | inhibition in vivo at 10 mg/kg [5]: 60%
CCCCCCC(=P(c1ccccc1)(c1ccccc1)c1ccccc1)[P+](c1ccccc1)(c1ccccc1)c1ccccc1 [Type II, R2 n-Hexyl, X Br] | 39% |  |  | 61% | 100% | 58% | 79% | inhibition in vivo at 100 mg/kg [9]: 94%
